In publication PMC6801822, “The Bactericidal Activity of Temporin Analogues Against Methicillin Resistant Staphylococcus aureus” (International Journal of Molecular Sciences, 2019):
Values after ≈ are worked out from the molar mass of the structure shown. Read-outs that look alike come from different tables or passages of the source. Non-standard residues stand in square brackets, D forms with d. Residues, ends and D or L forms follow the SMILES beside them. AEEA = NCCOCCOCC(=O)O

Columns and labels:
[1] = system: S. aureus USA300 cytoplasmic membrane; test: Sytox green uptake (membrane permeabilization); assay type: cell-based, Staphylococcus aureus
Method: The USA300 strain was grown to mid-logarithmic phase at 37 °C, washed, and resuspended in 10 mM sodium phosphate buffer (pH 7.2) Bacterial cells were then incubated with 1 µM Sytox green for 15 min in the dark. After the addition of desired concentration of peptide conjugate (5–100 µg/mL), the time-dependent increases in fluorescence caused by the binding of the cationic dye to intracellular DNA were monitored (excitation at 485 nm and emission at 520 nm).

[2] = system: S. aureus USA300 (MRSA) in suspension; test: Killing of MRSA in suspension, CFU count; assay type: cell-based, Staphylococcus aureus; details: MRSA 2 × 10^6 CFU/mL, peptide 50 μg/mL, 1 h, n = 2
[3] = system: S. epidermidis ATCC 12228; details: S. epidermidis ATCC 12228; broth microdilution, MHB, 37 °C, 24 h, triplicates
Method: (§1) Antimicrobial activity of peptides was analyzed through determination of MIC parameter according to the standard microdilution technique performed on 96-well plates. Mueller-Hinton broth (MHB, Sigma Aldrich, St. Louis, MO, USA) was used as the working medium for all bacterial strains. Briefly, inoculum was prepared from freshly grown cultures of bacteria being at their exponential phase of growth. Each well of 96-well plates containing 100 µL of serially diluted peptides in PBS at desired concentration was inoculated with 100 µL of 10^5 CFU/mL of bacterial suspension. Then plates were incubated overnight 37 °C and absorbance was read at 600 nm after 24 h. Wells without peptide were treated as the positive control, while uninoculated MHB was defined as the negative control. All measurements were run in triplicates.

[4] = system: MRSA clinical isolate 56A1; details: MRSA clinical isolate 56A1 (skin); broth microdilution, MHB, 24 h
Method: as §1

[5] = system: MRSA clinical isolate 2872cv; details: MRSA clinical isolate 2872cv (blood); broth microdilution, MHB, 24 h
Method: as §1

[6] = system: MRSA clinical isolate 7219; details: MRSA clinical isolate 7219 (blood); broth microdilution, MHB, 24 h
Method: as §1

[7] = system: MRSA S. aureus strains (clinical isolates)
Method: as §1

Compound: CC[C@H](C)[C@H](NC(=O)COCCOCCNC(=O)[C@H](CCCNC(=N)N)NC(=O)[C@H](CC(C)C)NC(=O)[C@H](Cc1ccccc1)NC(=O)CNC(=O)[C@@H](C)NC(=O)[C@@H](N)Cc1ccc(O)cc1)C(=O)N[C@@H](CCCCN)C(=O)N[C@@H](CCCCN)C(=O)N[C@H](C(=O)N[C@@H](CC(C)C)C(=O)N[C@@H](CO)C(=O)N[C@H](CCCCN)C(=O)N[C@H](C(=O)N[C@@H](CCCCN)C(=O)N[C@@H](CCCCN)C(=O)N[C@@H](CC(C)C)C(=O)N[C@@H](CC(C)C)C(N)=O)[C@@H](C)CC)[C@@H](C)CC [DAL-PEG-DK5] (H-Y[dA]GFLR[AEEA]IKKILS[dK]IKKLL-NH2; N-terminus assumed)
- permeabilization of the cell membrane ([1]; 5 min post-treatment, peptide 10 μg): marked permeabilization of the cell membrane
- concentration at which permeabilization of the bacterial membrane reached a plateau ([1]; USA300, 1 μM Sytox green, 10 mM sodium phosphate buffer pH 7.2, up to 60 min): 25 µg/mL
- reduction in the number of live bacteria in suspension [2]: 74%
- MIC [3]: 60 µg/mL (≈ 26.4 µM)
- MIC [4]: 40 µg/mL (≈ 17.6 µM)
- MIC [5]: 40 µg/mL (≈ 17.6 µM)
- MIC [6]: 30 µg/mL (≈ 13.2 µM)
- MIC against the majority of tested MRSA strains (90%) ([7]; conversion of 40 μg/mL): 17.56 µM
- MIC against the majority of tested MRSA strains (90%) ([7]; estimate of the discussion): 40 µg/mL
